Reference: publication PMC11189555, “Aryl amino acetamides prevent Plasmodium falciparum ring development via targeting the lipid-transfer protein PfSTART1” (Nature Communications, 2024)

Columns and labels:
[1] = tested on: PopD-D7 M-833 resistant clone (PfSTART1 N309K); assay: Growth inhibition assay (72 h, LDH activity); assay type: cell-based, Plasmodium falciparum
Method: (§1) The drug was then removed, and parasites were allowed to recover. Another cycle of drug treatment (3 μM M-833) was then resumed. The resistant lines were cloned out by limiting dilution (diluting the culture into a 96-well plate to achieve an average of ~0.3 parasites per well), prior to growth inhibition assays and genomic DNA (gDNA) extraction (DNeasy Blood and Tissue kit (Qiagen)[18].
(§2) Parasite growth assays with inhibitory compounds were performed as per[11] and are fully described in the Supplementary Information. […]
(§3) Growth inhibition assays. Synchronised ring-stage parasites (0.3-0.6% parasitemia, 2% haematocrit) were grown for 72 h in a serial-dilution of the compound under […]
(§4) and compound 4. Note that M-833 was first purchased from MolPort (MolPort -002-267-916) then made in-house at WEHI: the differences observed in EC50s across experiments are attributed to the different batches of M -833. For some experiments, 0, 0.25 or 2.5 mM of glucosamine (GlcN) was also added. Experiments were set up in technical duplicates or triplicates. Following a freeze -thaw cycle, lactate dehydrogenase (LDH) activity was assessed as an indicator of parasite growt h 5. 30 μL of parasite culture was incubated for 30 min in the dark with 75 μL Malstat mixture (0.1 M Tris pH 9.0, 20 g/L lactic acid, pH 7.5, 0.2% Triton-X100, 0.5 g/L acetylpyridine adenine dinucleotide (APAD, Sigma), 200 μg/mL nitroblue tetrazolium (NBT; Sigma), 1 μg/mL phenozine ethosulfate (PES; Sigma)). Absorbance was then measured at 650 nm, transformed using the formula below, plotted against the logarithm of the concentrations, and a non-linear regression (log(inhibitor) vs. response, variable slope) was calculated using GraphPad Prism to assess the half-inhibitory […]
(§5) Growth inhibition % = (1 − average(sample)− average(uRBC)) ∗ 100 […]
(§6) The DMSO samples were also used to assess growth of parasite in the presence of 0.25 and 2.5 mM GlcN (normalised by DMSO in 0 mM GlcN). […]

[2] = tested on: PopE-F10 M-833 resistant clone (PfSTART1 N330K); assay: Growth inhibition assay (72 h, LDH activity); assay type: cell-based, Plasmodium falciparum
Method: as §1, §2, §3, §4, §5, §6

CC(C)(Oc1ccc(Cl)c(S(=O)(=O)N2CCOCC2)c1)C(=O)Nc1ccc(F)c(Cl)c1 [compound 3]
EC50 ([1]; Plasmodium falciparum, Supplementary Table 1, PopD-D7 (N309K), 72 h, read-out: EC50): 1.4 µM
resistance of the line compared with 3D7 ([1]; PopD-D7 (N309K), Fig 4B): highly resistant
(av-uRBC) / (DMSO-uRBC) x100 ([1]; PopD-D7, 3.04832 nM, biological replicate 1): 117.893
(av-uRBC) / (DMSO-uRBC) x100 ([1]; PopD-D7, 3.04832 nM, biological replicate 2): 107.059
(av-uRBC) / (DMSO-uRBC) x100 ([1]; PopD-D7, 3.04832 nM, biological replicate 3): 122.96
(av-uRBC) / (DMSO-uRBC) x100 ([1]; PopD-D7, 9.14495 nM, biological replicate 1): 119.508
(av-uRBC) / (DMSO-uRBC) x100 ([1]; PopD-D7, 9.14495 nM, biological replicate 2): 110.415
(av-uRBC) / (DMSO-uRBC) x100 ([1]; PopD-D7, 9.14495 nM, biological replicate 3): 124.421
(av-uRBC) / (DMSO-uRBC) x100 ([1]; PopD-D7, 27.4348 nM, biological replicate 1): 119.539
(av-uRBC) / (DMSO-uRBC) x100 ([1]; PopD-D7, 27.4348 nM, biological replicate 2): 110.363
(av-uRBC) / (DMSO-uRBC) x100 ([1]; PopD-D7, 27.4348 nM, biological replicate 3): 140.932
(av-uRBC) / (DMSO-uRBC) x100 ([1]; PopD-D7, 82.3045 nM, biological replicate 1): 115.279
(av-uRBC) / (DMSO-uRBC) x100 ([1]; PopD-D7, 82.3045 nM, biological replicate 2): 110.433
(av-uRBC) / (DMSO-uRBC) x100 ([1]; PopD-D7, 82.3045 nM, biological replicate 3): 132.525
(av-uRBC) / (DMSO-uRBC) x100 ([1]; PopD-D7, 246.914 nM, biological replicate 1): 110.69
(av-uRBC) / (DMSO-uRBC) x100 ([1]; PopD-D7, 246.914 nM, biological replicate 2): 106.686
(av-uRBC) / (DMSO-uRBC) x100 ([1]; PopD-D7, 246.914 nM, biological replicate 3): 118.688
(av-uRBC) / (DMSO-uRBC) x100 ([1]; PopD-D7, 740.741 nM, biological replicate 1): 93.2195
(av-uRBC) / (DMSO-uRBC) x100 ([1]; PopD-D7, 740.741 nM, biological replicate 2): 100.295
(av-uRBC) / (DMSO-uRBC) x100 ([1]; PopD-D7, 740.741 nM, biological replicate 3): 70.3418
(av-uRBC) / (DMSO-uRBC) x100 ([1]; PopD-D7, 2222.22 nM, biological replicate 1): 51.7543
(av-uRBC) / (DMSO-uRBC) x100 ([1]; PopD-D7, 2222.22 nM, biological replicate 2): 59.804
(av-uRBC) / (DMSO-uRBC) x100 ([1]; PopD-D7, 2222.22 nM, biological replicate 3): 18.6053
(av-uRBC) / (DMSO-uRBC) x100 ([1]; PopD-D7, 6666.67 nM, biological replicate 1): 13.8697
(av-uRBC) / (DMSO-uRBC) x100 ([1]; PopD-D7, 6666.67 nM, biological replicate 2): 12.8436
(av-uRBC) / (DMSO-uRBC) x100 ([1]; PopD-D7, 6666.67 nM, biological replicate 3): 12.5413
(av-uRBC) / (DMSO-uRBC) x100 ([1]; PopD-D7, 20000 nM, biological replicate 1): 8.262
(av-uRBC) / (DMSO-uRBC) x100 ([1]; PopD-D7, 20000 nM, biological replicate 2): 6.955
(av-uRBC) / (DMSO-uRBC) x100 ([1]; PopD-D7, 20000 nM, biological replicate 3): 7.3043
Fold change compared to 3D7 ([1]; Supplementary Table 1, EC50 on PopD-D7 vs 3D7): 88 fold
EC50 ([2]; Plasmodium falciparum, 72 h, Supplementary Table 1, PopE-F10 (N330K)): 3.25 µM
resistance of the line compared with 3D7 ([2]; PopE-F10 (N330K), Fig 4B): highly resistant
(av-uRBC) / (DMSO-uRBC) x100 ([2]; PopE-F10, 3.04832 nM, biological replicate 1): 115.115
(av-uRBC) / (DMSO-uRBC) x100 ([2]; PopE-F10, 3.04832 nM, biological replicate 2): 108.442
(av-uRBC) / (DMSO-uRBC) x100 ([2]; PopE-F10, 3.04832 nM, biological replicate 3): 119.048
(av-uRBC) / (DMSO-uRBC) x100 ([2]; PopE-F10, 9.14495 nM, biological replicate 1): 115.06
(av-uRBC) / (DMSO-uRBC) x100 ([2]; PopE-F10, 9.14495 nM, biological replicate 2): 109.174
(av-uRBC) / (DMSO-uRBC) x100 ([2]; PopE-F10, 9.14495 nM, biological replicate 3): 119.013
(av-uRBC) / (DMSO-uRBC) x100 ([2]; PopE-F10, 27.4348 nM, biological replicate 1): 115.16
(av-uRBC) / (DMSO-uRBC) x100 ([2]; PopE-F10, 27.4348 nM, biological replicate 2): 107.726
(av-uRBC) / (DMSO-uRBC) x100 ([2]; PopE-F10, 27.4348 nM, biological replicate 3): 110.78
(av-uRBC) / (DMSO-uRBC) x100 ([2]; PopE-F10, 82.3045 nM, biological replicate 1): 115.437
(av-uRBC) / (DMSO-uRBC) x100 ([2]; PopE-F10, 82.3045 nM, biological replicate 2): 107.232
(av-uRBC) / (DMSO-uRBC) x100 ([2]; PopE-F10, 82.3045 nM, biological replicate 3): 123.007
(av-uRBC) / (DMSO-uRBC) x100 ([2]; PopE-F10, 246.914 nM, biological replicate 1): 112.345
(av-uRBC) / (DMSO-uRBC) x100 ([2]; PopE-F10, 246.914 nM, biological replicate 2): 106.543
(av-uRBC) / (DMSO-uRBC) x100 ([2]; PopE-F10, 246.914 nM, biological replicate 3): 116.449
(av-uRBC) / (DMSO-uRBC) x100 ([2]; PopE-F10, 740.741 nM, biological replicate 1): 107.602
(av-uRBC) / (DMSO-uRBC) x100 ([2]; PopE-F10, 740.741 nM, biological replicate 2): 102.914
(av-uRBC) / (DMSO-uRBC) x100 ([2]; PopE-F10, 740.741 nM, biological replicate 3): 98.1859
(av-uRBC) / (DMSO-uRBC) x100 ([2]; PopE-F10, 2222.22 nM, biological replicate 1): 85.8267
(av-uRBC) / (DMSO-uRBC) x100 ([2]; PopE-F10, 2222.22 nM, biological replicate 2): 84.9625
(av-uRBC) / (DMSO-uRBC) x100 ([2]; PopE-F10, 2222.22 nM, biological replicate 3): 59.2883
(av-uRBC) / (DMSO-uRBC) x100 ([2]; PopE-F10, 6666.67 nM, biological replicate 1): 37.9433
(av-uRBC) / (DMSO-uRBC) x100 ([2]; PopE-F10, 6666.67 nM, biological replicate 2): 28.6269
(av-uRBC) / (DMSO-uRBC) x100 ([2]; PopE-F10, 6666.67 nM, biological replicate 3): 13.3438
(av-uRBC) / (DMSO-uRBC) x100 ([2]; PopE-F10, 20000 nM, biological replicate 1): 11.6135
(av-uRBC) / (DMSO-uRBC) x100 ([2]; PopE-F10, 20000 nM, biological replicate 2): 7.135
(av-uRBC) / (DMSO-uRBC) x100 ([2]; PopE-F10, 20000 nM, biological replicate 3): 4.744
Fold change compared to 3D7 ([2]; Supplementary Table 1, EC50 on PopE-F10 vs 3D7): 203 fold
